The nature of one series: Solubility in water. The conditions noted are these: for Solubility in water (in words): Table 1 and text. The class given is physicochemical. From the text: Solubility properties of tributyltin derivatives [formula]
Series [1] concerns Alternaria tenuis CBS 10426. The series can be described thus: Microbiological test. The class given is cell-based. From the text:
(§1) In the test for microbiocidal activity the compounds listed hereinbelow yielded the values indicated in the following Table: No. Compound __________________________________________________________________________ 1 (n--C4 H9)3 Sn--S--CH2 --CH2 --COO.(CH 2 --CH2 --O--n H(n~9) 2 (C6 H5)3 Sn--S--(CH2)3 --SO3.Na CH3 .vertline. 3 --Sn--S--CH2 --CH2 --COO--(CH2 --CH2 --O)n.H(n ~9) .vertline. CH3 4 (n--C4 H9)3 Sn--S--CH2 --COO.H.N(CH2 CH2 OH)3 5 (n--C4 H9)3 Sn--S--(CH2)2 --COO.H.N(CH2 CH2 OH)3 6 (n--C4 H9)3 Sn--S--CH2 --CO.N(CH2 CH2 OH)2 __________________________________________________________________________

The test system of series [2] is Arizona paracolon 7:1.7,8. The series is described as follows: Microbiological test. The class given is cell-based.
Source text: as §1

Series [3] has as its system Aspergillus flavus CBS 12662. The series is described as follows: Microbiological test. The class given is cell-based.
Source text: as §1

The subject of series [4] is Aspergillus niger ATCC 6275. The series can be described thus: Microbiological test. The class given is cell-based.
Source text: as §1

Series [5] relates to Bacillus subtilis NCTC 6460. The series can be described thus: Microbiological test. The class given is cell-based.
Source text: as §1

Another series concerns Candida albicans CBS. The series can be described thus: Microbiological test. Type of series: cell-based.
Source text: as §1

Series [6] concerns Chaetomium globosum CBS 14851. The series is described as follows: Microbiological test. Type of series: cell-based.
Source text: as §1

Another series deals with Coniphora cerebella CBS. The series can be described thus: Microbiological test. The class given is cell-based.
Source text: as §1

Series [7] relates to Corynebacterium diphteroides FUR. The series is described as follows: Microbiological test. Type of series: cell-based.
Source text: as §1

The subject of series [8] is Escherichia coli NCTC 8195. The series is described as follows: Microbiological test. The class given is cell-based.
Source text: as §1

Series [9] relates to Escherichia coli RP 45410. The series is described as follows: Microbiological test. The class given is cell-based.
Source text: as §1

Another series relates to Fusarium oxysporum CBS. The series is described as follows: Microbiological test. Type of series: cell-based.
Source text: as §1

For the next series, the system named is Fusarium spec. DAP. The series can be described thus: Microbiological test. Type of series: cell-based.
Source text: as §1

Another series concerns Hefe DAP. The series is described as follows: Microbiological test. Type of series: cell-based.
Source text: as §1

A further series concerns Hefe rot DAP. The series is described as follows: Microbiological test. Type of series: cell-based.
Source text: as §1

The subject of the next series is Lenzites abietina CBS. The series is described as follows: Microbiological test. Type of series: cell-based.
Source text: as §1

Series [10] relates to Mycobacterium phlei CITM 61. The series is described as follows: Microbiological test. Type of series: cell-based.
Source text: as §1

Another series has as its system Paecilomyces varioti CBS. The series can be described thus: Microbiological test. Type of series: cell-based.
Source text: as §1

The test system of series [11] is Pasteurella multocida K753. The series is described as follows: Microbiological test. The class given is cell-based.
Source text: as §1

In series [12] the test system is Penicillium expansum SMC 36. The series is described as follows: Microbiological test. The class given is cell-based.
Source text: as §1

The test system of series [13] is Penicillium funiculosum CEB 329631. The series can be described thus: Microbiological test. Type of series: cell-based.
Source text: as §1

The test system of a further series is Pilz schwarzlich DAP. The series can be described thus: Microbiological test. Type of series: cell-based.
Source text: as §1

Series [14] relates to Polystictus versicolor EMPA61. The series can be described thus: Microbiological test. The class given is cell-based.
Source text: as §1

A further series has as its system Poria vaporia CBS. The series can be described thus: Microbiological test. The class given is cell-based.
Source text: as §1

Series [15] relates to Pseudomonas fluorescens NCTC 4755. The series is described as follows: Microbiological test. Type of series: cell-based.
Source text: as §1

For series [16], the system named is Pullularia pullulans CBS 10767. The series can be described thus: Microbiological test. The class given is cell-based.
Source text: as §1

The subject of series [17] is Salmonella gallinarum VBIB. The series is described as follows: Microbiological test. Type of series: cell-based.
Source text: as §1

In another series the test system is Salmonella pullorum VBIZ. The series can be described thus: Microbiological test. Type of series: cell-based.
Source text: as §1

The subject of the next series is Sarcina ureae SMB 81. The series can be described thus: Microbiological test. Type of series: cell-based.
Source text: as §1

Series [18] concerns Stachybotrys atra CBS 32465. The series can be described thus: Microbiological test. Type of series: cell-based.
Source text: as §1

Series [19] deals with Staphylococcus aureus SG 511 M6. The series can be described thus: Microbiological test. Type of series: cell-based.
Source text: as §1

The test system of series [20] is Staphylococcus aureus SG 511. The series can be described thus: Microbiological test. Type of series: cell-based.
Source text: as §1

Series [21] has as its system Streptococcus agalactiae M100. The series is described as follows: Microbiological test. The class given is cell-based.
Source text: as §1

Series [22] has as its system Streptococcus faecalis NCTC 8619. The series can be described thus: Microbiological test. Type of series: cell-based.
Source text: as §1

Series [23] deals with Trichoderma viride CEB 3334.2. The series is described as follows: Microbiological test. Type of series: cell-based.
Source text: as §1

A further series relates to Trichophyton gypseum CBS. The series can be described thus: Microbiological test. Type of series: cell-based.
Source text: as §1

Series [24] concerns Salmonella cholerae-suis VBIB. The class given is cell-based.
For series [25] the following is noted: in water / neutral medium / strongly acid or alkaline pH.

For the compound `CCC[CH2][Sn]([CH2]CCC)([CH2]CCC)[S]CC(O)CO` (centres unmarked) [--CH2 --CH--CH2], the “Solubility in water (in words)” value in the series “Solubility in water” is given as “satisfactory”.
Turning to `O=S(=O)([O-])CCC[S][Sn]([c]1ccccc1)([c]1ccccc1)[c]1ccccc1.[Na+]` [Compound 2, sodium S-triphenyl tin-γ-mercaptopropanesulphonate], the Activity range is recorded as 10 ppm in [1]; greater than 300 ppm in [2]; 30 ppm in series [3]; 30 ppm in series [4]; 3 ppm in [5]; 30 ppm with Candida albicans CBS. Also, the Activity range came out at 10 ppm in series [6]; 30 ppm in the series on Coniphora cerebella CBS; 3 ppm in series [7]; 30 ppm in series [8]; 10 ppm in [9]; 10 ppm in the series with Fusarium oxysporum CBS. Also, the Activity range is 30 ppm in the series with Fusarium spec. DAP; 10 ppm in the series on Hefe DAP; 10 ppm in the series with Hefe rot DAP; 100 ppm with Lenzites abietina CBS; 3 ppm in series [10]; 10 ppm with Paecilomyces varioti CBS. Besides, the Activity range in series [11] is given as greater than 300 ppm; in series [12] it was 30 ppm; in series [13] it was 100 ppm; with Pilz schwarzlich DAP it was 30 ppm; in [14], 30 ppm; in the series with Poria vaporia CBS, 3 ppm. The Activity range in series [15] was greater than 300 ppm; in series [16], 3 ppm; in [17], greater than 300 ppm; in the series on Salmonella pullorum VBIZ, greater than 300 ppm; in the series on Sarcina ureae SMB 81, 3 ppm; in [18], 10 ppm. In addition, the Activity range in series [19] is recorded as 10 ppm; in series [20], 3 ppm; in series [21], 3 ppm; in series [22] it was 10 ppm; in [23], 10 ppm; in the series with Trichophyton gypseum CBS it was 30 ppm. The same compound displayed an Activity range in series [24] greater than 300 ppm.
As to `CCC[CH2][Sn]([CH2]CCC)([CH2]CCC)[S]CC(=O)N(CCO)CCO` [Compound 6, S-tri-n-butyl tin-thioglycolic acid diethanolamide], the Activity range in series [1] is on record as no more than 3 ppm; in series [2] it was greater than 300 ppm; in series [3] it was 10 ppm; in series [4] it was 10 ppm; in series [5] it was no more than 1 ppm; in the series on Candida albicans CBS, 10 ppm. Also, the Activity range is on record as no more than 3 ppm in series [6]; 10 ppm in the series on Coniphora cerebella CBS; no more than 1 ppm in [7]; 30 ppm in series [8]; 30 ppm in series [9]; 10 ppm in the series on Fusarium oxysporum CBS. The Activity range in the series on Lenzites abietina CBS is on record as 10 ppm; in [10] it was no more than 1 ppm; in the series with Paecilomyces varioti CBS it was no more than 3 ppm; in series [11], 30 ppm; in [12], 10 ppm; in series [13], 30 ppm. Further, the Activity range in series [14] was 30 ppm; in the series on Poria vaporia CBS, 10 ppm; in series [15], 30 ppm; in series [16], 10 ppm; in the series on Salmonella pullorum VBIZ, greater than 300 ppm; in the series on Sarcina ureae SMB 81, no more than 1 ppm. The Activity range in series [18] is reported as no more than 3 ppm; in series [19], 3 ppm; in series [20], 30 ppm; in [21], 3 ppm; in series [22], 30 ppm; in series [23], 10 ppm. The Activity range with Trichophyton gypseum CBS is given as 10 ppm; in [24], greater than 300 ppm.
For the compound `CCC[CH2][Sn]([CH2]CCC)([CH2]CCC)[O][Sn]([CH2]CCC)([CH2]CCC)[CH2]CCC` [TBTO, bis-(tri-n-butyltin)-oxide], the Solubility in water in “Solubility in water” (Table 1, comparison) came to 20 ppm. In addition, the “Solubility in water (in words)” value in “Solubility in water” was “poor”.
Turning to `CCC[CH2][Sn]([CH2]CCC)([CH2]CCC)[O]S(N)(=O)=O` [tributyltin sulphaminate], the “stability to hydrolysis (in words)” value in [25] was “hydrolytically split off in water at once”.
Turning to “S-tri-n-butyl-tin-β-mercaptopropionic acid polyethylene glycol ester [Compound 1]”, the Activity range in series [1] is 30 ppm; in series [2] it was greater than 300 ppm; in series [3], 30 ppm; in series [4], 30 ppm; in [5], 10 ppm; with Candida albicans CBS, 30 ppm. Moreover, the Activity range in series [6] was 10 ppm; in the series with Coniphora cerebella CBS, 10 ppm; in [7], 10 ppm; in series [8] it was 10 ppm; in series [9], 10 ppm; in the series on Fusarium oxysporum CBS, 30 ppm. Besides, the Activity range with Fusarium spec. DAP was 30 ppm; in the series on Hefe DAP, 10 ppm; in the series on Hefe rot DAP, 10 ppm; with Lenzites abietina CBS, 10 ppm; in series [10], 3 ppm; with Paecilomyces varioti CBS, 30 ppm. For the same compound, the Activity range in [11] turned out to be 10 ppm; in series [12] it was 30 ppm; in series [13] it was 30 ppm; in the series on Pilz schwarzlich DAP, 10 ppm; in [14], 100 ppm; in the series on Poria vaporia CBS, 100 ppm. In addition, the Activity range was 10 ppm in series [15]; 10 ppm in series [16]; greater than 300 ppm in series [17]; greater than 300 ppm in the series with Salmonella pullorum VBIZ; 10 ppm in the series on Sarcina ureae SMB 81; 10 ppm in series [18]. Further, the Activity range in [19] stood at 10 ppm; in [20], 10 ppm; in series [21], 3 ppm; in series [22] it was 10 ppm; in [23] it was 100 ppm; with Trichophyton gypseum CBS, 30 ppm. In series [24], this compound displayed an Activity range greater than 300 ppm.

The values above are taken from patent US3931262A, “Hydrophilic and difficultly volatile biocidal triorganotin compounds” (priority 1972, dated 1976).
